Molecular target: T1, hFASN enzyme (full length) (Homo sapiens, UniProt P49327)
T1 construct: 10 μL hFASN enzyme (full length, 300 ng, purified in house); made in house
Test: Fatty Acid Synthase (FASN) Inhibition Scintillation Proximity Assay
Format: biochemical
Conditions: for IC50: mean where tested more than once, ~ = standard error of pIC50 larger than 0.5; for inhibition at 10 µM: read-out: FASN % Effect @1E−05M
Method: In this assay, inhibition of FASN activity is measured using ^3H-acetyl-CoA and malonyl-CoA as substrates. ^3H-Acetyl CoA is converted to ^3H-palmitate through a series of reactions by the FASN protein, which contains 7 functional domains and carries out 7 enzymatic reactions to ultimately produce ^3H-palmitate. The assay principle is based upon the fact that ^3H-acetyl-CoA is hydrophilic and the end product, ^3H-palmitate is hydrophobic.
10 μL assay buffer (100 mM KH2PO4 pH 7.5, 1 mM DTT) (20 μL in blanks) was added to a 384-well white Opti Plate plate (Perkin Elmer). 0.9 μL test compound (at concentrations of 30 μM, 10 μM, 3 μM, 1 μM, 0.30 μM, 0.10 μM, 0.03 μM and 0.01 μM)/DMSO and 10 μL hFASN enzyme (full length, 300 ng, purified in house) or 10 μL assay buffer was added to the wells. Then 10 μL 450 μM NADPH (Sigma N7505), 18.75 μM [^3H]-acetyl-CoA (Perkin Elmer NET-290L), 150 μM malonyl-CoA (Sigma M4263) were added, mixed and incubated at room temperature for 60 minutes. The reaction was stopped by adding 20 μL Streptavidin coupled imaging beads (25 mg/ml). After incubation for 30 minutes at room temperature in the dark, the 384 well plate was centrifuged at 1500 rpm for 3 minutes and was measured after at least 24 hrs by the LEADseeker™, measuring emission using a 610±20 nm pass filter. (Bays, N. W., et al., “A simplified scintillation proximity assay for fatty acid synthase activity: development and comparison with other FAS activity assays”, J. Biomol. Screen, 2009, pp 636-642, Vol. 14(6).)
Raw data generated by the instrument were normalized to % Controlmin values, which were calculated as: % Controlmin=100*(x−mLC)/(mHC−mLC)
where mLC and mHC were the means of the low control wells and high control wells on the plate, after manual exclusion of outliers. A plot of Controlmin versus test compound concentration was fitted to a 4-parameter logistic curve using a non-linear least squares regression method. From the plot, an IC50 (concentration at which 50% inhibition is achieved) was calculated. pIC50 values were calculated as −log(IC50), when IC50 is expressed in molar units.

T1 sequence (P49327 whole entry): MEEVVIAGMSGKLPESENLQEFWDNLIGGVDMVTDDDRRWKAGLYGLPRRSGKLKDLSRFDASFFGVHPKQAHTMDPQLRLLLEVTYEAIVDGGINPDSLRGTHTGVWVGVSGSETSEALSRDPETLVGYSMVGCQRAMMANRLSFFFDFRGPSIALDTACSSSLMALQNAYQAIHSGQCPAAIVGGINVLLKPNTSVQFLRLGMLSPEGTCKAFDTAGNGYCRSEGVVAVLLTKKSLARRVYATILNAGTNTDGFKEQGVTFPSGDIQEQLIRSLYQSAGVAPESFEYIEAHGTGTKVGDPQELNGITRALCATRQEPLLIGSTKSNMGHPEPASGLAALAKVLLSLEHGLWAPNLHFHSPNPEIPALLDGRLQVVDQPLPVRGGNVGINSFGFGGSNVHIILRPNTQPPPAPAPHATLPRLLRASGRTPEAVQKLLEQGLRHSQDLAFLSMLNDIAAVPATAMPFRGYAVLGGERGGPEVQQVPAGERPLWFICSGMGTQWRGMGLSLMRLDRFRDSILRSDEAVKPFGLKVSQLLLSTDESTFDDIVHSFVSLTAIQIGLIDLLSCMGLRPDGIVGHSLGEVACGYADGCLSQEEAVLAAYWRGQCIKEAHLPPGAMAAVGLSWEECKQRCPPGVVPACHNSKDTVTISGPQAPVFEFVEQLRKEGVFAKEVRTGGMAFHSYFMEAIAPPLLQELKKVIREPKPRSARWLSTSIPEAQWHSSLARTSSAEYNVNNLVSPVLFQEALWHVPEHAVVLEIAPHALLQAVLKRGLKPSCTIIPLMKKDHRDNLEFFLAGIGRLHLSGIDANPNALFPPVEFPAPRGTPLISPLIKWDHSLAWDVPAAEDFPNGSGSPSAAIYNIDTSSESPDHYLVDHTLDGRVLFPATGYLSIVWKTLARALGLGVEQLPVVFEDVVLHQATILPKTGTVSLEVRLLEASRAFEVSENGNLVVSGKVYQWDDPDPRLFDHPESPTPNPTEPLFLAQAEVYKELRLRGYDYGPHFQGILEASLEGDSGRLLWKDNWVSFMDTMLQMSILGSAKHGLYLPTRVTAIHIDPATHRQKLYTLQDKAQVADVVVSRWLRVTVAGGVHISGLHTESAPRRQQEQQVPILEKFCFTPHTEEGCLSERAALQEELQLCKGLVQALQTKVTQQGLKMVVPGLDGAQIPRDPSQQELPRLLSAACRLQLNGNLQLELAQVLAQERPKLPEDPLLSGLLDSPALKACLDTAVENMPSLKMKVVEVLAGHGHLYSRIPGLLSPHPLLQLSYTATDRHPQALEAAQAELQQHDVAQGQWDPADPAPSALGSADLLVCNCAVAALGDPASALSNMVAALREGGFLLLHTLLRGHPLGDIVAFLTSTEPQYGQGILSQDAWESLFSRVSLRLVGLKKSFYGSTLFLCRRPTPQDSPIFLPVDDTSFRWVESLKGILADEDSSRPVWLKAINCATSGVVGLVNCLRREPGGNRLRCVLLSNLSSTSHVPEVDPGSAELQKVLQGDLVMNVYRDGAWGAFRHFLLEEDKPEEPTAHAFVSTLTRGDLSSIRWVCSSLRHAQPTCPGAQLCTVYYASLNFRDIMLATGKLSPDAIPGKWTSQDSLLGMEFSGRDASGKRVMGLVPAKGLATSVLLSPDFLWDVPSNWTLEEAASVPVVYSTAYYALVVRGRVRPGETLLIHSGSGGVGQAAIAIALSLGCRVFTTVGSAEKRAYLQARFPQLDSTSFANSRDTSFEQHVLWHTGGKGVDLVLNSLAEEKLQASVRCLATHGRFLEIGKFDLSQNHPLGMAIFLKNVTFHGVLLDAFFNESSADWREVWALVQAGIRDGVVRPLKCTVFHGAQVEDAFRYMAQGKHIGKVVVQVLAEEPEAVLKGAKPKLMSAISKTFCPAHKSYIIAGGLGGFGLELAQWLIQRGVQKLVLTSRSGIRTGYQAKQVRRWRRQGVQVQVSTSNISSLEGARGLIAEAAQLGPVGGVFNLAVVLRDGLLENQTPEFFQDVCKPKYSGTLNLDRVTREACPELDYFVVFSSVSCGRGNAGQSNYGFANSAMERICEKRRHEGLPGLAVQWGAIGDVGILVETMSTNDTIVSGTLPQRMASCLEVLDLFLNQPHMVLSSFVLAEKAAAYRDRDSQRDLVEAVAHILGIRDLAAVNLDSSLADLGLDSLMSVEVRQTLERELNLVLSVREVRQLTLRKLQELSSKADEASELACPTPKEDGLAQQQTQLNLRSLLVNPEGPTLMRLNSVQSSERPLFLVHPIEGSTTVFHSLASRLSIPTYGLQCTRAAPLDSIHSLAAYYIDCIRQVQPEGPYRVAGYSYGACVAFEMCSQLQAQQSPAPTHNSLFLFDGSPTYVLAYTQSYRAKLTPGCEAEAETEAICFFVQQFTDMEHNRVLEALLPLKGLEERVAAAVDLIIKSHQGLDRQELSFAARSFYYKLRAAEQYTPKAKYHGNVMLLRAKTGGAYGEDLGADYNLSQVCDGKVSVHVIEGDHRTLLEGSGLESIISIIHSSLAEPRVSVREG

SMILES	IC50	inhibition at 10 µM
Cc1ccc(C(=O)N2CCC(c3ccc4nncn4c3)CC2)cc1NC(=O)c1ccc(NC(C)C)nc1 [Compound 20, N-(5-(4-([1,2,4]triazolo[4,3-a]pyridin-6-yl)piperidine-1-carbonyl)-2-methylphenyl)-6-(isopropylamino)nicotinamide]	~30.2 µM	30%
Cc1ccc(C(=O)N2CCC(c3ccc4ncsc4c3)CC2)cc1NC(=O)c1ccc(NC(C)C)nc1 [Compound 46, N-(5-(4-(benzo[d]thiazol-6-yl)piperidine-1-carbonyl)-2-methylphenyl)-6-(isopropylamino)nicotinamide]	2.29 µM	74%
Cc1ccc(C(=O)N2CCC(c3ccc4ncsc4c3)CC2)cc1NC(=O)c1ccc(Cl)nc1 [Compound 47, N-(5-(4-(benzo[d]thiazol-6-yl)piperidine-1-carbonyl)-2-methylphenyl)-6-chloronicotinamide]	~7.76 µM	60%
Cc1ccc(C(=O)N2CC(O)(c3ccc(-c4ccnn4C)cc3)C2)cc1NC(=O)c1ccc(Cl)nc1 [Compound 107, 6-chloro-N-(5-(3-hydroxy-3-(4-(1-methyl-1H-pyrazol-5-yl)phenyl)azetidine-1-carbonyl)-2-methylphenyl)nicotinamide]	> 10 µM	41%
Cc1ccc(C(=O)N2CC(c3ccc(-c4cnn(C)c4)cc3)C2)cc1NC(=O)C1CCCC1 [Compound 226, N-(2-methyl-5-(3-(4-(1-methyl-1H-pyrazol-4-yl)phenyl)azetidine-1-carbonyl)phenyl)cyclopentanecarboxamide]	> 10 µM	17%
Cc1ccc(C(=O)N2CCC(c3ccc(-c4cnn(C)c4)cc3)CC2)cc1NC(=O)c1nccn1C [Compound 227, 1-methyl-N-(2-methyl-5-(4-(4-(1-methyl-1H-pyrazol-4-yl)phenyl)piperidine-1-carbonyl)phenyl)-1H-imidazole-2-carboxamide]	2.45 µM	63%
Cc1ccc(C(=O)N2CCC(c3ccc(-c4cnn(C)c4)cc3)CC2)cc1NC(=O)c1nc(C(C)(C)C)cs1 [Compound 229, 4-(tert-butyl)-N-(2-methyl-5-(4-(4-(1-methyl-1H-pyrazol-4-yl)phenyl)piperidine-1-carbonyl)phenyl)thiazole-2-carboxamide]	4.07 µM	61%
Cc1ccc(-c2ccc(C3CCN(C(=O)c4ccc(C)c(NC(=O)c5ccc(NC(C)C)nc5)c4)CC3)cc2)cc1 [Compound 234, 6-(isopropylamino)-N-(2-methyl-5-(4-(4′-methyl-[1,1′-biphenyl]-4-yl)piperidine-1-carbonyl)phenyl)nicotinamide]	~2 µM	63%
CN(C(=O)C1CC1)c1ccc(C(=O)N2CCC(c3ccc(-c4cnn(C)c4)cc3)CC2)cc1NC(=O)C1CC1 [Compound 277, N-(2-(cyclopropanecarboxamido)-4-(4-(4-(1-methyl-1H-pyrazol-4-yl)phenyl)piperidine-1-carbonyl)phenyl)-N-methylcyclopropanecarboxamide]	4.47 µM	62%
COCCN(C(=O)C1CC1)c1ccc(C(=O)N2CCC(c3ccc(-c4cnn(C)c4)cc3)CC2)cc1NC(=O)C1CC1 [Compound 291, N-(2-(cyclopropanecarboxamido)-4-(4-(4-(1-methyl-1H-pyrazol-4-yl)phenyl)piperidine-1-carbonyl)phenyl)-N-(2-methoxyethyl)cyclopropanecarboxamide]	> 10 µM	
